From patent US9416141B2 (University of Washington through its Center for …, priority 2012, dated 2016) come the findings set out here.

This experiment has as its system hair cells. Briefly: Hair cell toxicity assay in zebrafish (neomycin-induced hair cell death, DASPEI staining of neuromasts). Format: in vivo. The conditions noted are these: Danio rerio; for Emax at 25 µM: maximum observed @ 25 μM test compound; for pEC50: zebrafish larvae 5-7 dpf, 1 h pre-treatment, then 200 micromolar neomycin + test compound 30 min, read-out: HC50 (concentration that would produce 50% hair cell survival); for Emax at 2.8 µM: maximum observed @ 2.8 μM test compound; for Emax at 8.3 µM: maximum observed @ 8.3 μM test compound. As for the experimental part: Zebrafish are bred and newly fertilized embryos are collected the week prior and raised at 28.5° C. in petri dishes containing embryo medium. Newly hatched free-swimming larvae are fed paramecium and dry fish food at 4 days post fertilization (dpf) with lights on. For treatment, fish 5-7 dpf are transferred to cell culture baskets and place within a well of a 6-well plate containing 7 milliliters of 1× embryo medium. Typically, tests are done with ten fish per basket but work well with up to 50 fish. All treatment and wash volumes are 7 milliliters. • 1. Fish are pre-treated with test compound for 1 hour. […] Treat with 200 micromolar neomycin (neomycin sulfate, Sigma, St. Louis, Mo., catalog #N1142)+test compound for 30 minutes. • 3. Rinse fish briefly 4 times in embryo medium and add 700 μl of 0.05% DASPEI (2-{4-(dimethylamino)styryl}-N-ethylpyridinium iodide, Molecular Probes, Eugene, Oreg.) and allowed to stain for 15 minutes. • 4. Rinse twice in embryo medium and add 350 μl MS222 (0.55 ug/ml final concentration, 3-aminobenzoic acid ethyl ester, methansulfoneate salt, Sigma, St. Louis, Mo.) to anesthetize. • 5. View with epifluorescence dissecting microscope equipped with a DAPSEI filter set (excitation […], Chroma Technologies, Brattleboro, Vt.). For assessment of initial dose response curves, fish are transferred to wide depression slide with wide-bore pipette. The DASPEI staining of ten neuromasts (SO1, SO2, IO1, IO2, IO3, IO4, M2, MI1, MI2 and O2) on one side of an animal are evaluated. Each neuromast is scored for presence of DASPEI staining (score=2), reduced DASPEI staining (score=1) or absence of DASPEI staining (score=0). Total scores for an animal are tabulated, to give a composite score that can range from 0 to 20. Average scores and standard deviations are calculated for animals in each treatment group. Scores are normalized to control group (vehicle only, no drug, no neomycin) and expressed as % hair cell survival. HCmax is the maximum protection (hair cell survival) observed. • 6. If at least 50% hair cells survive, the HC50 (concentration that would produce 50% hair cell survival) is calculated as a linear extrapolation from the nearest concentrations of protective drug that produce hair cell survival below and above 50%. If less than 50% hair cells survive, the HC50 is not determined. 1× embryo media (standard lab EM): • 1 mM MgSO4, • 0.15 mM KH2PO4, • 0.05 mM Na2HPO4, • 1 mM CaCl2, • 0.5 mM KCl • 15 mM NaCl • 0.7 mM NaHCO3

Setting [1] is: 200 micromolar neomycin, read-out: Max HC Protection (HCmax, % hair cell survival).

SMILES strings stand for the structures. pEC50: −log10 of the molar value. Structures can show the parent of a compound that is named as a salt.

For `CC(=O)NCCN1CCc2c(sc(NC(=O)Nc3ccc(Cl)cc3)c2C(N)=O)C1` [Example 15, 6-(2-Acetamidoethyl)-2-[3-(4-chlorophenyl)ureido]-4,5,6,7-tetrahydrothieno[2,3-c]pyridine-3-carboxamide trifluoroacetate], the pEC50 is under 5.00. Moreover, the Emax at 25 µM under setting [1] turned out to be 57%.

In the case of `NC(=O)c1c(NC(=O)Nc2ccc(Cl)cc2)sc2c1CCN(CC1CCCCC1)C2` [Example 16, 2-[3-(4-Chlorophenyl)ureido]-6-(cyclohexylmethyl)-4,5,6,7-tetrahydrothieno[23-c]pyridine-3-carboxamide hydrochloride], the pEC50 is 5.00 to 6.00. Moreover, the Emax at 2.8 µM under setting [1] was 57%.

In the case of `NC(=O)c1c(NC(=O)Nc2ccc(Cl)cc2)sc2c1CCN(CC1CCCC1)C2` [Example 17, 2-[3-(4-Chlorophenyl)ureido]-6-(cyclopentylmethyl)-4,5,6,7-tetrahydrothieno[2,3-c]pyridine-3-carboxamide hydrochloride], the pEC50 was 5.00 to 6.00. Besides, the Emax at 8.3 µM under setting [1] was 65%.

`CC(C)(C)OC(=O)CCCCCN1CCc2c(sc(NC(=O)Nc3ccc(Cl)cc3)c2C(N)=O)C1` [Example 18, tert-Butyl 6-{3-carbamoyl-2-[3-(4-chlorophenyl)ureido]-4,5-dihydrothieno[2,3-c]pyridin-6(7H)-yl}hexanoate]: the pEC50 is over 6.00. Moreover, under setting [1], the Emax at 2.8 µM amounted to 64%.

Take `CC(C)(C)OC(=O)CCCCN1CCc2c(sc(NC(=O)Nc3ccc(Cl)cc3)c2C(N)=O)C1` [Example 19, tert-Butyl 5-{3-carbamoyl-2-[3-(4-chlorophenyl)ureido]-4,5-dihydrothieno[2,3-c]pyridin-6(7H)-yl}pentanoate]: the pEC50 was over 6.00. Under setting [1], the Emax at 8.3 µM amounted to 68%.

For the compound `COC(=O)CCCN1CCc2c(sc(NC(=O)Nc3ccc(Cl)cc3)c2C(N)=O)C1` [Example 20, Methyl 4-{3-carbamoyl-2-[3-(4-chlorophenyl)ureido]-4,5-dihydrothieno[2,3-c]pyridin-6(7H)-yl}butanoate hydrochloride], the pEC50 was 5.00 to 6.00. Further, under setting [1], the Emax at 25 µM came out at 65%.

In the case of `CCOC(=O)CCCN1CCc2c(sc(NC(=O)Nc3ccc(Cl)cc3)c2C(N)=O)C1` [Example 21, Ethyl 4-{3-carbamoyl-2-[3-(4-chlorophenyl)ureido]-4,5-dihydrothieno[2,3-c]pyridin-6(7H)-yl}butanoate hydrochloride], the pEC50 was 5.00 to 6.00. Also, the Emax at 2.8 µM under setting [1] amounted to 57%.

On to `CC(C)(C)OC(=O)C1CC(N2CCc3c(sc(NC(=O)Nc4ccc(Cl)cc4)c3C(N)=O)C2)C1` (stereo not drawn) [Example 22, tert-Butyl 3-{3-carbamoyl-2-[3-(4-chlorophenyl)ureido]-4,5-dihydrothieno[2,3-c]pyridin-6(7H)-yl}cyclobutanecarboxylate], for which the Emax at 2.8 µM under setting [1] is 22%.

For the compound `CN(C)C(=O)CCCN1CCc2c(sc(NC(=O)Nc3ccc(Cl)cc3)c2C(N)=O)C1` [Example 23, 2-[3-(4-Chlorophenyl)ureido]-6-[4-(dimethylamino)-4-oxobutyl]-4,5,6,7-tetrahydrothieno[2,3-c]pyridine-3-carboxamide hydrochloride], the Emax at 2.8 µM under setting [1] worked out at 43%.

Take `CC1(CN2CCc3c(sc(NC(=O)Nc4ccc(Cl)cc4)c3C(N)=O)C2)CCC1` [Example 24, 2-[3-(4-Chlorophenyl)ureido]-6-[(1-methylcyclobutyl)methyl]-4,5,6,7-tetrahydrothieno[2,3-c]pyridine-3-carboxamide trifluoroacetate]: the pEC50 is 5.00 to 6.00. The Emax at 2.8 µM under setting [1] stood at 54%.

Consider `CC(C)NC(=O)CCCN1CCc2c(sc(NC(=O)Nc3ccc(Cl)cc3)c2C(N)=O)C1` [Example 25, 2-[3-(4-Chlorophenyl)ureido]-6-[4-(isopropylamino)-4-oxobutyl]-4,5,6,7-tetrahydrothieno[2,3-c]pyridine-3-carboxamide hydrochloride], for which the pEC50 was 5.00 to 6.00. Under setting [1], the Emax at 2.8 µM amounted to 57%.

As for `CC(C)CN1CCc2c(sc(NC(=O)Nc3ccc(Cl)cc3)c2C(N)=O)C1` [Example 26, 2-[3-(4-Chlorophenyl)ureido]-6-isobutyl-4,5,6,7-tetrahydrothieno[2,3-c]pyridine-3-carboxamide hydrochloride], the pEC50 was 5.00 to 6.00. Besides, the Emax at 8.3 µM under setting [1] is 68%.

As to `CC(C)(C)CN1CCc2c(sc(NC(=O)Nc3ccc(Cl)cc3)c2C(N)=O)C1` [Example 27, 2-[3-(4-Chlorophenyl)ureido]-6-neopentyl-4,5,6,7-tetrahydrothieno[2,3-c]pyridine-3-carboxamide hydrochloride], the pEC50 was 5.00 to 6.00. For the same compound, the Emax at 25 µM under setting [1] stood at 79%.

Turning to `CCN1Cc2sc(NC(=O)Nc3ccc(Cl)cc3)c(C(N)=O)c2C1` [Example 28, 2-[3-(4-Chlorophenyl)ureido]-5-ethyl-5,6-dihydro-4H-thieno[2,3-c]pyrrole-3-carboxamide hydrochloride], the pEC50 was 5.00 to 6.00. Moreover, the Emax at 8.3 µM under setting [1] worked out at 58%.

As for `CCN1CCc2c(sc(NC(=O)Nc3ccc(C(=O)OC(C)(C)C)cc3)c2C(N)=O)C1` [Example 29, tert-Butyl 4-[3-(3-carbamoyl-6-ethyl-4,5,6,7-tetrahydrothieno[2,3-c]pyridin-2-yl)ureido]benzoate], the pEC50 was 5.00 to 6.00. For the same compound, the Emax at 25 µM under setting [1] is 75%.

In the case of `CCN1CCc2c(sc(NC(=O)Nc3ccc(CC(=O)OC(C)(C)C)cc3)c2C(N)=O)C1` [Example 30, tert-Butyl 2-{4-[3-(3-carbamoyl-6-ethyl-4,5,6,7-tetrahydrothieno[2,3-c]pyridin-2-yl)ureido]phenyl}acetate], the pEC50 was 5.00 to 6.00. The Emax at 25 µM under setting [1] was 58%.

As to `CCN1CCc2c(sc(NC(=O)Nc3ccc(C(=O)OC)cc3)c2C(N)=O)C1` [Example 31, Methyl 4-[3-(3-carbamoyl-6-ethyl-4,5,6,7-tetrahydrothieno[2,3-c]pyridin-2-yl)ureido]benzoate trifluoroacetate], under setting [1], the Emax at 25 µM is 22%.

Take `CCN1CCc2c(sc(NC(=O)Nc3ccc(C(=O)O)cc3)c2C(N)=O)C1` [Example 32, 4-[3-(3-Carbamoyl-6-ethyl-4,5,6,7-tetrahydrothieno[2,3-c]pyridin-2-yl)ureido]benzoic acid trifluoroacetate]: the Emax at 25 µM under setting [1] stood at 19%.

For `CCN1CCc2c(sc(NC(=O)Nc3ccc(CC(=O)O)cc3)c2C(N)=O)C1` [Example 33, 2-{4-[3-(3-Carbamoyl-6-ethyl-4,5,6,7-tetrahydrothieno[2,3-c]pyridin-2-yl)ureido]phenyl}acetic acid trifluoroacetate], the Emax at 0.93 µM (maximum observed @ 0.93 μM test compound, 200 micromolar neomycin, read-out: Max HC Protection (HCmax, % hair cell survival)) turned out to be 9%.

For `CC(C)CN1CCc2c(sc(NC(=O)Nc3ccc4ccccc4c3)c2C(N)=O)C1` [Example 34, 6-Isobutyl-2-[3-(naphthalen-2-yl)ureido]-4,5,6,7-tetrahydrothieno[2,3-c]pyridine-3-carboxamide hydrochloride], the pEC50 was 5.00 to 6.00. Moreover, the Emax at 25 µM under setting [1] was found to be 87%.

Turning to `NC(=O)c1c(NC(=O)Nc2ccc3ccccc3c2)sc2c1CCN(CC1CCC1)C2` [Example 35, 6-(Cyclobutylmethyl)-2-[3-(naphthalen-2-yl)ureido]-4,5,6,7-tetrahydrothieno[2,3-c]pyridine-3-carboxamide hydrochloride], the Emax at 2.8 µM under setting [1] worked out at 42%.
